Measured values from PubChem BioAssay AID256 (DTP/NCI, 2004).
Where “and” joins values, the source holds several entries; their conditions need not be identical. Identical values can stand only once. Toxic doses and inconclusive results are not listed. The calls were made as follows: active = survival T/C of 150% or more; inactive = T/C below 125% in these data.

Tested on: CD2F1 mice, L1210 leukemia ip, survival T/C
Experiment: NCI In Vivo Anticancer Drug Screen. Data for tumor model L1210 Leukemia (intraperitoneal) in CD2F1 (CDF1) mice
Details: higher = longer survival
In short: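 Read-out first: treated-group measurement over vehicle-control measurement, expressed as a ratio. Animals bore a transplanted tumor line and were dosed with compound or vehicle.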

[1] = endpoint: mean survival time, dose: 100.0 mg/kg/injection, schedule: Q01DX009 (ip), vehicle: saline with Tween-80
[2] = endpoint: mean survival time, dose: 200.0 mg/kg/injection, schedule: Q01DX009 (ip), vehicle: saline with Tween-80
[3] = endpoint: mean survival time, dose: 400.0 mg/kg/injection, schedule: Q01DX009 (ip), vehicle: saline with Tween-80
[4] = endpoint: mean survival time, dose: 200.0 mg/kg/injection, schedule: Q01DX009 (ip), vehicle: other
[5] = endpoint: mean survival time, dose: 400.0 mg/kg/injection, schedule: Q01DX009 (ip), vehicle: other
[6] = endpoint: mean survival time, dose: 25.0 mg/kg/injection, schedule: Q01DX009 (ip), vehicle: saline with Tween-80
[7] = endpoint: mean survival time, dose: 50.0 mg/kg/injection, schedule: Q01DX009 (ip), vehicle: saline with Tween-80
[8] = endpoint: mean survival time, dose: 100.0 mg/kg/injection, schedule: Q04DX003 (ip), vehicle: saline with Tween-80
[9] = endpoint: mean survival time, dose: 200.0 mg/kg/injection, schedule: Q04DX003 (ip), vehicle: saline with Tween-80
[10] = endpoint: mean survival time, dose: 25.0 mg/kg/injection, schedule: Q01DX009 (ip), vehicle: other
[11] = endpoint: mean survival time, dose: 12.5 mg/kg/injection, schedule: Q04DX003 (ip), vehicle: saline with Tween-80
[12] = endpoint: mean survival time, dose: 25.0 mg/kg/injection, schedule: Q04DX003 (ip), vehicle: saline with Tween-80

Measured: T/C

CCO/N=C(\C)C(N)=O
inactive: [1] 101 % of control | [2] 108 % of control | [3] 95 % of control

C=C(C)C1(CC)C(=O)NC(=S)N(C)C1=O (configuration not stated)
inactive: endpoint: mean survival time, dose: 75.0 mg/kg/injection, schedule: Q01DX001 (ip), vehicle: saline 97 % of control | endpoint: mean survival time, dose: 150.0 mg/kg/injection, schedule: Q01DX001 (ip), vehicle: saline 101 % of control | endpoint: mean survival time, dose: 300.0 mg/kg/injection, schedule: Q01DX001 (ip), vehicle: saline 101 % of control

O=S(=O)(O)c1cccc2cnccc12
inactive: [1] 98 % of control | endpoint: mean survival time, dose: 100.0 mg/kg/injection, schedule: Q04DX003 (ip), vehicle: saline sonified 93 % of control | [2] 96 % of control | endpoint: mean survival time, dose: 200.0 mg/kg/injection, schedule: Q04DX003 (ip), vehicle: saline sonified 98 % of control | [3] 93 % of control | endpoint: mean survival time, dose: 400.0 mg/kg/injection, schedule: Q04DX003 (ip), vehicle: saline sonified 98 % of control

O=C(O)C(=O)O.[La]
inactive: [4] 98 % of control | [5] 96 % of control

CC(=O)Nc1nc(Cl)nc2c1ncn2Cc1ccccc1
inactive: endpoint: mean survival time, dose: 75.0 mg/kg/injection, schedule: Q01DX001 (ip), vehicle: other 95 % of control | endpoint: mean survival time, dose: 150.0 mg/kg/injection, schedule: Q01DX001 (ip), vehicle: other 96 % of control

CC(c1ccccc1)n1cncc1C(=O)N1CCN(C)CC1 (configuration not stated)
inactive: [6] 105 % of control | [7] 96 % of control | [1] 94 % of control and 95 % of control | [8] 92 % of control | [9] 91 % of control | endpoint: mean survival time, dose: 400.0 mg/kg/injection, schedule: Q04DX003 (ip), vehicle: saline with Tween-80 97 % of control

CC(C)=NNCCO
inactive: endpoint: mean survival time, dose: 6.25 mg/kg/injection, schedule: Q01DX009 (ip), vehicle: saline 93 % of control | endpoint: mean survival time, dose: 12.5 mg/kg/injection, schedule: Q01DX009 (ip), vehicle: saline 95 % of control | endpoint: mean survival time, dose: 25.0 mg/kg/injection, schedule: Q01DX009 (ip), vehicle: saline 104 % of control

CNOCc1ccc(C(=O)NC(C)C)cc1
inactive: [10] 98 % of control | endpoint: mean survival time, dose: 50.0 mg/kg/injection, schedule: Q01DX009 (ip), vehicle: other 100 % of control | endpoint: mean survival time, dose: 100.0 mg/kg/injection, schedule: Q01DX009 (ip), vehicle: other 98 % of control | [4] 100 % of control | [5] 118 % of control

O=C(O)CC(O)(CC(=O)O)C(=O)O.[Sn]
inactive: endpoint: mean survival time, dose: 6.25 mg/kg/injection, schedule: Q04DX003 (ip), vehicle: saline with Tween-80 98 % of control | [11] 90 % of control | [12] 102 % of control

CC(C)=CC1CC(C)C2(CCC3(C)CC4C(C(=O)CC4(C)O)/C(C=O)=C\CC32)O1 (configuration not stated)
inactive: endpoint: mean survival time, dose: 2.5 mg/kg/injection, schedule: Q01DX009 (ip), vehicle: saline with Tween-80 97 % of control | endpoint: mean survival time, dose: 5.0 mg/kg/injection, schedule: Q01DX009 (ip), vehicle: saline with Tween-80 94 % of control | endpoint: mean survival time, dose: 10.0 mg/kg/injection, schedule: Q01DX009 (ip), vehicle: saline with Tween-80 97 % of control

Cc1ccc(-n2c(O)c(N=Nc3ccccc3)c(=O)n(-c3ccccc3)c2=S)cc1
inactive: endpoint: mean survival time, dose: 100.0 mg/kg/injection, schedule: Q01DX001 (ip), vehicle: saline with Tween-80 100 % of control | endpoint: mean survival time, dose: 200.0 mg/kg/injection, schedule: Q01DX001 (ip), vehicle: saline with Tween-80 100 % of control | endpoint: mean survival time, dose: 400.0 mg/kg/injection, schedule: Q01DX001 (ip), vehicle: saline with Tween-80 86 % of control

CCC(=O)N(C)[C@@H](C)C(=O)O[C@H]1CC(=O)N(C)c2cc(cc(OC)c2Cl)C/C(C)=C/C=C[C@@H](OC)[C@@]2(O)C[C@H](OC(=O)N2)[C@@H](C)[C@@H]2O[C@@]12C
inactive: endpoint: mean survival time, dose: 1.3 micrograms/kg/injection, schedule: Q01DX009 (ip), vehicle: saline + alcohol 110 % of control | endpoint: mean survival time, dose: 2.5 micrograms/kg/injection, schedule: Q01DX009 (ip), vehicle: saline + alcohol 119 % of control | endpoint: mean survival time, dose: 2.5 micrograms/kg/injection, schedule: Q01DX009 (ip), vehicle: saline 109 % of control | endpoint: mean survival time, dose: 3.8 micrograms/kg/injection, schedule: Q01DX009 (ip), vehicle: saline + alcohol 120 % of control | endpoint: mean survival time, dose: 5.0 micrograms/kg/injection, schedule: Q01DX009 (ip), vehicle: saline + alcohol 117 % of control and 111 % of control | endpoint: mean survival time, dose: 5.0 micrograms/kg/injection, schedule: Q01DX009 (ip), vehicle: saline 111 % of control | endpoint: mean survival time, dose: 7.5 micrograms/kg/injection, schedule: Q01DX009 (ip), vehicle: saline + alcohol 106 % of control | endpoint: mean survival time, dose: 10.0 micrograms/kg/injection, schedule: Q01DX009 (ip), vehicle: saline + alcohol 115 % of control | endpoint: mean survival time, dose: 10.0 micrograms/kg/injection, schedule: Q01DX009 (ip), vehicle: saline 111 % of control | endpoint: mean survival time, dose: 15.0 micrograms/kg/injection, schedule: Q01DX009 (ip), vehicle: saline + alcohol 112 % of control | endpoint: mean survival time, dose: 20.0 micrograms/kg/injection, schedule: Q01DX009 (ip), vehicle: saline 111 % of control | endpoint: mean survival time, dose: 30.0 micrograms/kg/injection, schedule: Q01DX009 (ip), vehicle: saline + alcohol 122 % of control | endpoint: mean survival time, dose: 30.0 micrograms/kg/injection, schedule: Q01DX009 (ip), vehicle: saline 117 % of control | endpoint: mean survival time, dose: 60.0 micrograms/kg/injection, schedule: Q01DX009 (ip), vehicle: saline + alcohol 114 % of control

C(=N\Nc1nn[nH]n1)/c1ccccc1
inactive: [6] 105 % of control | [7] 97 % of control | [1] 108 % of control

C[C@]12CCCC[C@@H]1CC[C@@H]1[C@@H]2[C@@H](O)C[C@]2(C)[C@@H](O)CC[C@@H]12
inactive: [8] 93 % of control | [9] 101 % of control

O=C(/C=C/c1cccnc1)/C=C/c1cccnc1
inactive: endpoint: mean survival time, dose: 6.25 mg/kg/injection, schedule: Q01DX009 (ip), vehicle: other 105 % of control | endpoint: mean survival time, dose: 12.5 mg/kg/injection, schedule: Q01DX009 (ip), vehicle: other 105 % of control | endpoint: mean survival time, dose: 12.5 mg/kg/injection, schedule: Q04DX003 (ip), vehicle: acetone 104 % of control | [10] 107 % of control | endpoint: mean survival time, dose: 25.0 mg/kg/injection, schedule: Q04DX003 (ip), vehicle: acetone 103 % of control | endpoint: median survival time, dose: 3.13 mg/kg/injection, schedule: Q01DX005 (ip), vehicle: Klucel (hydroxypropylcellulose) (HPC) 102 % of control | endpoint: median survival time, dose: 6.25 mg/kg/injection, schedule: Q01DX005 (ip), vehicle: Klucel (hydroxypropylcellulose) (HPC) 97 % of control | endpoint: median survival time, dose: 12.5 mg/kg/injection, schedule: Q01DX005 (ip), vehicle: Klucel (hydroxypropylcellulose) (HPC) 95 % of control | endpoint: median survival time, dose: 25.0 mg/kg/injection, schedule: Q01DX005 (ip), vehicle: Klucel (hydroxypropylcellulose) (HPC) 98 % of control | endpoint: median survival time, dose: 50.0 mg/kg/injection, schedule: Q01DX005 (ip), vehicle: Klucel (hydroxypropylcellulose) (HPC) 100 % of control

O=S1(=O)CC23CC=CCC2(CC=CC3)C1 (configuration not stated)
inactive: endpoint: mean survival time, dose: 100.0 mg/kg/injection, schedule: Q04DX003 (ip), vehicle: other 100 % of control | endpoint: mean survival time, dose: 200.0 mg/kg/injection, schedule: Q04DX003 (ip), vehicle: other 102 % of control

Cc1ccc(NC(=O)Oc2cc(C)c(Cl)cc2C)cc1C
inactive: [7] 100 % of control | [1] 100 % of control | [2] 92 % of control

O=C(O)C1C(c2ccccc2)=C(c2ccccc2)c2ccccc21 (configuration not stated)
inactive: [6] 94 % of control | [7] 93 % of control | [1] 98 % of control

CC12CC1(C)C(=O)OC2=O (configuration not stated)
inactive: [7] 96 % of control | [1] 95 % of control | [2] 96 % of control

Cc1cccc2c(CBr)cc(=O)[nH]c12
inactive: [11] 101 % of control | [12] 101 % of control | endpoint: mean survival time, dose: 50.0 mg/kg/injection, schedule: Q04DX003 (ip), vehicle: saline with Tween-80 101 % of control
